# Test results from patent publication US7507739B2, “6-[(substituted)phenyl]triazolopyrimidines as anticancer agents” (Wyeth, priority 2003, dated 2009).
# Marks after values point to notes of the source that are not given here.
# Assays:
# [1] = system: H157 Human Non-Small Cell Lung Carcinoma; test: Human tumor xenograft test, H157; format: in vivo, athymic mice; details: for T/C on day 0 / T/C on day 7 / T/C on day 11 / T/C on day 14: days 0, 6
# Method: (§1) The ability of compounds of this invention to inhibit tumor growth in animals is studied in the athymic mouse xenograft standard pharmacological test. Female nu/nu mice in an outbred albino background are obtained from Charles River Laboratories (Wilmington, Mass.). Animals are injected subcutaneously on the flank with the desired tumor cell suspension. Several days later, mice with tumors of approximately 150 mm^3 are selected from those injected (staged) and randomly distributed into groups of 5-10. The day of staging is called day 0. Compounds of the invention, usually formulated in saline (exceptions are noted in tables), are administered to animals by intravenous injection or oral gavage on various schedules starting on day 0 or 1, as noted in the tables. The control group in each experiment is dosed with vehicle on the same schedule. Tumor size is measured every 3-7 days with calipers in two orthogonal dimensions, and tumor volume is calculated from the formula volume=[(length×width^2)/2].
# (§2) Tumor/Control (T/C) is obtained by dividing the mean tumor volume of the treated group by the mean tumor volume of the control group on each measurement day. A treatment dose is defined as active if it produced a statistically significant T/C of 0.50 or less. A p value≦0.05, determined by one-side Student's t-test, is required for statistical significance. A treatment dose is defined as toxic if more than 10% of the animals died from a compound-related toxicity.
# [2] = system: HT-29 Human Colon Carcinoma; test: Human tumor xenograft test, HT-29; format: in vivo, athymic mice
# Method: as §1, §2
# [3] = system: A549 Human Non-Small Cell Lung Carcinoma; test: Human tumor xenograft test, A549; format: in vivo, athymic mice; details: for T/C on day 0 / T/C on day 7 / T/C on day 14 / T/C on day 21 / T/C on day 27 / T/C on day 35: days 0, 6, 13, 20
# Method: as §1, §2
# [4] = system: DLD1 Human Colon Carcinoma; test: Human tumor xenograft test, DLD1; format: in vivo; details: days 1, 5, 9, 13
# [5] = system: HCT-15 Human Colon Carcinoma; test: Human tumor xenograft test, HCT-15; format: in vivo, athymic mice; details: for T/C on day 0 / T/C on day 7 / T/C on day 13 / T/C on day 20: days 1, 8, 15
# Method: as §1, §2
# [6] = system: LOX Human Melanoma; test: Human tumor xenograft test, LOX; format: in vivo, athymic mice; details: for tumor growth inhibition (activity call): LOX melanoma; for T/C on day 0 / T/C on day 7 / T/C on day 13: LOX, days 1, 5, 9, 13
# Method: as §1, §2
# [7] = system: U87-MG Human Glioblastoma; test: Human tumor xenograft test, U87-MG; format: in vivo, athymic mice; details: U87-MG
# Method: as §1, §2
smiles,measurement,setting,value
"CNCCCOc1cc(F)c(-c2c(Cl)nc3ncnn3c2N[C@@H](C)C(F)(F)F)c(F)c1.Cl [Example 2a, 5-Chloro-6-{2,6-difluoro-4-[3-(methylamino)propoxy]phenyl}-N-[(1S)-2,2,2-trifluoro-1-methylethyl][1,2,4]triazolo[1,5-a]pyrimidin-7-amine hydrogen chloride]",T/C on day 0,"[1]; H157, 7.5 mg/kg IV",1.04
same,T/C on day 7,"[1]; H157, 7.5 mg/kg IV",0.54**
same,T/C on day 11,"[1]; H157, 7.5 mg/kg IV",0.42**
same,T/C on day 14,"[1]; H157, 7.5 mg/kg IV",0.45**
same,T/C on day 0,"[1]; H157, 15 mg/kg IV",1.02
same,T/C on day 7,"[1]; H157, 15 mg/kg IV",0.55*
same,T/C on day 11,"[1]; H157, 15 mg/kg IV",0.44*
same,T/C on day 14,"[1]; H157, 15 mg/kg IV",0.42**
same,T/C on day 0,"[1]; H157, 25 mg/kg IV",1.03
same,T/C on day 7,"[1]; H157, 25 mg/kg IV",0.62*
same,T/C on day 11,"[1]; H157, 25 mg/kg IV",0.29**
same,T/C on day 14,"[1]; H157, 25 mg/kg IV",0.30**
same,tumor growth inhibition (activity call),"[1]; H157 NSCLC, 25, 15 and 7.5 mg/kg intravenously on days 0 and 6",inhibited tumor growth
same,T/C on day 0,"[2]; HT-29, 25 mg/kg IV, days 1, 7",1.00
same,T/C on day 7,"[2]; HT-29, 25 mg/kg IV, days 1, 7",0.44**
same,T/C on day 10,"[2]; HT-29, 25 mg/kg IV, days 1, 7",0.34**
same,T/C on day 13,"[2]; HT-29, 25 mg/kg IV, days 1, 7",0.26**
same,T/C on day 21,"[2]; HT-29, 25 mg/kg IV, days 1, 7",0.43**
same,T/C on day 24,"[2]; HT-29, 25 mg/kg IV, days 1, 7",0.46**
same,tumor growth inhibition (activity call),"[2]; HT-29, 25 mg/kg intravenously on days 1 and 7",inhibited the growth
same,T/C on day 0,"[3]; A549, 15 mg/kg IV",1.01
same,T/C on day 7,"[3]; A549, 15 mg/kg IV",0.75*
same,T/C on day 14,"[3]; A549, 15 mg/kg IV",0.61**
same,T/C on day 21,"[3]; A549, 15 mg/kg IV",0.83
same,T/C on day 27,"[3]; A549, 15 mg/kg IV",0.75
same,T/C on day 35,"[3]; A549, 15 mg/kg IV",0.76
same,tumor growth inhibition (activity call),"[3]; A549, 15 mg/kg intravenously on days 0, 6, 13, and 20",not at 15 mg/kg
same,T/C on day 0,"[3]; A549, 20 mg/kg IV",0.97
same,T/C on day 7,"[3]; A549, 20 mg/kg IV",0.79
same,T/C on day 14,"[3]; A549, 20 mg/kg IV",0.55**
same,T/C on day 21,"[3]; A549, 20 mg/kg IV",0.59*
same,T/C on day 27,"[3]; A549, 20 mg/kg IV",0.50*
same,T/C on day 35,"[3]; A549, 20 mg/kg IV",0.49*
same,T/C on day 0,"[3]; A549, 25 mg/kg IV",0.99
same,T/C on day 7,"[3]; A549, 25 mg/kg IV",0.72*
same,T/C on day 14,"[3]; A549, 25 mg/kg IV",0.51**
same,T/C on day 21,"[3]; A549, 25 mg/kg IV",0.57*
same,T/C on day 27,"[3]; A549, 25 mg/kg IV",0.48*
same,T/C on day 35,"[3]; A549, 25 mg/kg IV",0.44*
same,tumor growth inhibition (activity call),"[3]; A549, 25 and 20 mg/kg intravenously on days 0, 6, 13, and 20",inhibited the growth
same,T/C on day 0,"[4]; DLD1, 10 mg/kg IV",1.00
same,T/C on day 7,"[4]; DLD1, 10 mg/kg IV",0.66
same,T/C on day 14,"[4]; DLD1, 10 mg/kg IV",0.65
same,T/C on day 21,"[4]; DLD1, 10 mg/kg IV",0.72
same,T/C on day 0,"[4]; DLD1, 15 mg/kg IV",1.00
same,T/C on day 7,"[4]; DLD1, 15 mg/kg IV",0.59
same,T/C on day 14,"[4]; DLD1, 15 mg/kg IV",0.54
same,T/C on day 21,"[4]; DLD1, 15 mg/kg IV",0.74
same,T/C on day 0,"[4]; DLD1, 20 mg/kg IV",1.00
same,T/C on day 7,"[4]; DLD1, 20 mg/kg IV",0.46*
same,T/C on day 14,"[4]; DLD1, 20 mg/kg IV",0.33
same,T/C on day 21,"[4]; DLD1, 20 mg/kg IV",0.53
same,T/C on day 0,"[5]; HCT-15, 10 mg/kg IV",1.00
same,T/C on day 7,"[5]; HCT-15, 10 mg/kg IV",0.81
same,T/C on day 13,"[5]; HCT-15, 10 mg/kg IV",1.03
same,T/C on day 20,"[5]; HCT-15, 10 mg/kg IV",0.75
same,T/C on day 0,"[5]; HCT-15, 20 mg/kg IV",1.00
same,T/C on day 7,"[5]; HCT-15, 20 mg/kg IV",0.86
same,T/C on day 13,"[5]; HCT-15, 20 mg/kg IV",0.50*
same,T/C on day 20,"[5]; HCT-15, 20 mg/kg IV",0.43*
same,tumor growth inhibition (activity call),"[5]; HCT-15, 20 mg/kg intravenously on days 1, 8, and 15",active
same,T/C on day 0,"[5]; HCT-15, 25 mg/kg IV",1.00
same,T/C on day 7,"[5]; HCT-15, 25 mg/kg IV",0.78
same,T/C on day 13,"[5]; HCT-15, 25 mg/kg IV",0.60
same,T/C on day 20,"[5]; HCT-15, 25 mg/kg IV",0.44
same,tumor growth inhibition (activity call),"[6]; 1 mg/kg intravenously on days 1, 5, 9, and 13",not at 1 mg/kg
same,tumor growth inhibition (activity call),"[6]; 6 and 3 mg/kg intravenously on days 1, 5, 9, and 13",active
same,T/C on day 0,[6]; 1 mg/kg IV,1.00
same,T/C on day 7,[6]; 1 mg/kg IV,0.81
same,T/C on day 13,[6]; 1 mg/kg IV,0.95
same,T/C on day 0,[6]; 3 mg/kg IV,1.00
same,T/C on day 7,[6]; 3 mg/kg IV,0.31**
same,T/C on day 13,[6]; 3 mg/kg IV,0.36
same,T/C on day 0,[6]; 6 mg/kg IV,1.00
same,T/C on day 7,[6]; 6 mg/kg IV,0.17**
same,T/C on day 13,[6]; 6 mg/kg IV,0.12**
same,tumor growth inhibition (activity call),[7]; orally single dose on day 0 at 5 or 2.5 mg/kg,not at 5 or 2.5 mg/kg
same,tumor growth inhibition (activity call),"[7]; orally single dose on day 0 at 30, 20, and 10 mg/kg",inhibited the growth
